Measurements published in patent publication EP4703361A1, “PYRIDAZINONE TRPC4/5 INHIBITOR AND USE THEREOF” (Shanghai Institute of Materia Medica, Chinese Academy of …, priority 2023, dated 2024).

Tests used:
[1] = Drug tissue distribution after oral administration to mice; conditions: for Drug concentration Brain / Drug concentration Colon / Drug concentration Heart / Drug concentration Kidney / Drug concentration Liver / Drug concentration Lung / Drug concentration Muscle / Drug concentration Plasma / Drug concentration Spleen: mice, 10 mg/kg oral
Procedure: 250 mg of CMC-Na was weighted accurately, dissolved in 50 mL of mili-Q water, and sonicated for 1 h to prepare a 0.5% (m/v) CMC-Na solution for later use. […] After vortexing to dissolve, 140 µL of Tween 80 was added and mixed by vortex. Then 6.72 mL of CMC-Na solution was added and sonicated for 30 min to obtain 7 mL of a 1.0 mg/mL solution for use.
Mice were able to eat and drink freely and randomly divided into groups, with 3 mice in each group, and each mouse was gavaged with a dosage volume of 10 mL/kg. Blood was collected from the orbital venous plexus 1 and 4 hours after administration. Approximately 500 µL of mouse blood was placed in an EDTA-K2 anticoagulant tube. At the same time points, the brain, heart, lung, liver, kidney, spleen, colon, and muscle tissues of the mice were collected. […] Mouse brain, heart, lung, liver, kidney, spleen, colon, and muscle tissues were ground into tissue homogenate using a grinder with physiological saline equal to 5 times the weight of the tissue. The homogenate was centrifuged at 3,000 rpm for 10 min, and the supernatant was stored at -80°C for later use.
198 µL of plasma sample was placed in a centrifuge tube, 2 µl of internal standard solution was added, then 400 µL of acetonitrile was added, mixed by vortex for 1 min, and centrifuged at 13,000 rpm for 6 min. All the supernatant was taken, evaporated at room temperature for two days, re-dissolved in 200 µL of acetonitrile solvent, filtered with a 0.22 µm filter membrane and then injected for testing. 198 µL of the tissue homogenate supernatant sample was placed in a centrifuge tube, 2 µl of internal standard solution was added, then 400 µL of acetonitrile was added, mixed by vortex for 1 min, and centrifuged at 13,000 rpm for 6 min. All the supernatant was taken, evaporated at room temperature for two days, re-dissolved in 200 µL of acetonitrile solvent, filtered with a 0.22 µm filter membrane and then injected for testing.
Chromatographic column: Ultimate XB-C18 3 µM 2.1*100 mm; flow rate: 0.3 mL/min; column temperature: 30 °C; injection volume: 5 µL; mobile phase: A (pure water, containing 0.1% by volume formic acid), B (acetonitrile). The mass spectrometry ion source was an electrospray ionization (ESI) ionization source with a source temperature of 300°C.

hTRPC5 = target: T1, hTRPC5 (Homo sapiens, UniProt Q9UL62); assay: TRPC5 inhibitory activity assay (FLIPR calcium flux, Fluo-4, agonist Englerin A); assay type: cell-based; conditions: HEK-293 cells expressing hTRPC5; agonist Englerin A 0.3 nM
T1 construct: expressed in transfected cells; host or cells: HEK-293
T1 sequence (Q9UL62 1-973): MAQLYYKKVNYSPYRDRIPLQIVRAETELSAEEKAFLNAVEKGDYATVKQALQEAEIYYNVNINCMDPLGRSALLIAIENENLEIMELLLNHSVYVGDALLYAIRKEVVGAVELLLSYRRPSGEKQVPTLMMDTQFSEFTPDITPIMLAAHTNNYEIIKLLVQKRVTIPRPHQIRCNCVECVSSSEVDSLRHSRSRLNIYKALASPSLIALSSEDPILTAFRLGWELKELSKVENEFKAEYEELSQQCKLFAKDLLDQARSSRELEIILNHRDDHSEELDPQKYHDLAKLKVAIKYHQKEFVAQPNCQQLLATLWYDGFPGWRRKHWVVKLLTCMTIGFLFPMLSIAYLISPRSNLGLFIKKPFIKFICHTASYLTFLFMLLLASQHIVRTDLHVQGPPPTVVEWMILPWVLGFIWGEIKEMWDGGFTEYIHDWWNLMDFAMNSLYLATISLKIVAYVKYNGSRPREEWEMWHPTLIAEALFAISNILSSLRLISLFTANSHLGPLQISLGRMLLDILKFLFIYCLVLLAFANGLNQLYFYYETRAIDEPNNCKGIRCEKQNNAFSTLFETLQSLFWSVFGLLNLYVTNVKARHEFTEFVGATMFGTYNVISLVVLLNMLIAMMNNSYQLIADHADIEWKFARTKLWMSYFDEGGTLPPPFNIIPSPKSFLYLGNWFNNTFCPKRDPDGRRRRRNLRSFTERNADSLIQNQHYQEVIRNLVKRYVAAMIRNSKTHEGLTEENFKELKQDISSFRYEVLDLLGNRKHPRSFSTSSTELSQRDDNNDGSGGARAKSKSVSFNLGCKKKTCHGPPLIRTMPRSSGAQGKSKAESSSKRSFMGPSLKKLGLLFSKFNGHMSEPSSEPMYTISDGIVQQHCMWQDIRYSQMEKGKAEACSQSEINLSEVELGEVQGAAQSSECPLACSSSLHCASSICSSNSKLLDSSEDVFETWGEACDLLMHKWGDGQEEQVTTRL
Procedure: HEK-293 cells expressing hTRPC4 or hTRPC5 were seeded into polylysine (PDL)-coated, black-bottomed, transparent 96-well plates at 2 × 10^4 cells per well. After 8 h of culture, the culture medium was discarded and 60 µL of 4 µM Fluo-4/AM dye was added. The plates were incubated at 37°C for 60 min and then rinsed five times with calcium flux assay buffer. […] After recording for 60 seconds, solvent control, test compound and positive inhibitor were added, and the signal was collected for another 300 seconds. Then, the agonist Englerin A (EA) (MedChemExpress, Shanghai, China, final concentration of 0.3 nM) was added, and the fluorescence signal was collected for another 600 seconds. The fluorescence signal in the trajectory diagram was expressed as F/F0, wherein F was the fluorescence signal at different time points and F0 was the basic fluorescence signal, that is, the average of the fluorescence signals at the first 10 time points. The dose-effect curve is first established with F/F0 = 1 as the baseline. The area under the curve of the fluorescence intensity change after the addition of EA was calculated. The IC50 value was calculated using the log[Inhibitor] vs. response - Variable slope, combining the area under the curve and the log value of the compound concentration.

[2] = Liver microsome stability test (human); conditions: for MF %: human liver microsomes, metabolic bioavailability; for half-life at 1 µM: human, liver microsomes, pH 7.4
Procedure: (§1) 0.1M pH 7.4 Tris buffer was prepared and then this buffer was used to prepare a 100 mM MgCl2 solution and a 10 mM coenzyme factor NADPH solution. The test compound was first prepared as a stock solution in DMSO and then diluted to a working concentration with 0.1% (w/v) BSA-PBS solution as needed.
(§2) During the assay, the liver microsome in TRIS buffer (final concentration of 0.33 mg/mL microsome protein), MgCl2 solution (final concentration of 5 mM), test compound solution (final concentration of 1 µM), and NADPH solution (final concentration of 1 mM) were incubated at 37°C. The reaction was terminated by adding methanol at 0, 7, 17, 30, and 60 minutes. The residual concentration of the test compound was determined using LC/MS/MS.
(§3) Calculation of in vivo clearance: Cl = (Clint × Houston × LW)/(1000); [formula]
(§4) Calculation of hepatic clearance: Clhep = (HBF × fu × Cl)/(HBF + (fu×Cl)); [formula]
(§5) Calculation of Metabolic utilization rate: %MF = 100−(Clhep × 100)/(HBF). [formula]
(§6) ke: Slope of the linear regression line (absolute value of slope) when plotting semi-logarithmic graph. The semi-logarithmic plot was made with the semi-logarithm of the remaining percentage of substrate versus reaction time. P: Microsome protein concentration (mg/mL); Houston: Houston factor (45 mg microsome protein/g liver); LW: Liver weight (g); HBF: Hepatic blood flow (mL/min); fu: Unbound fraction (typically fu=1).

[3] = Liver microsome stability test (mouse); conditions: for MF %: mouse liver microsomes, metabolic bioavailability; for half-life at 1 µM: mouse, liver microsomes, pH 7.4
Procedure: as §1, §2, §3, §4, §5, §6

in vitro [4] = conditions: human, microsomes, pH 7.4
Procedure: as §1, §2, §3, §4, §5, §6

in vitro [5] = conditions: mouse, microsomes, pH 7.4
Procedure: as §1, §2, §3, §4, §5, §6

[6] = system: DOCA-salt hypertensive nephropathy rats; assay: DOCA-salt-induced hypertensive nephropathy rat model; assay type: in vivo, SD rats; conditions: oral treatment for 3 weeks, losartan 30 mg/kg once a day
Description: After one week of adaptive feeding, 40 healthy male SD rats (SPF grade, 6 weeks old, weighing 200 g) were randomly divided into cages and fed with normal water. Five rats were selected as the normal group. The other 35 rats were weighed and anesthetized with 6% (w/v) chloral hydrate (200 g/ml, Sinopharm Group Reagent Company) intraperitoneally. The dorsal surgical area was then trimmed and the rats were fixed in a prone position on a surgical board. After strict disinfection, a 2-cm incision was made on the left side of the spine, below the twelfth rib. The muscles were separated, the renal capsule was freed, and the left kidney was exposed. The renal artery and vein were ligated close to the renal hilum, and the left kidney was removed. After clearing congestion, the muscle layer and skin were sutured. After surgery (after waking up from anesthesia), the rats were given an intraperitoneal injection of penicillin sodium (80,000 units intraperitoneal injection, for 3 consecutive days, prepared with normal saline. If 400,000 units of powder were used with 2.5 mL of normal saline, and 0.5 mL was injected per mouse per day). Afterwards, the normal group was given a subcutaneous injection of vegetable oil (commonly corn oil) and fed with tap water; the DOCA-salt modeling group was given a subcutaneous injection of deoxycorticosterone acetate (DOCA, CAS: 56-47-3, Shanghai Aladdin Biochemical Technology) dissolved in vegetable oil once a week, 30 mg/kg each time, and 10 g/L NaCl and 2 g/L KCl were added to the drinking water. The model was established after 4 consecutive weeks of induction.
Four weeks after modeling, the DOCA-salt hypertensive nephropathy rats were divided into four groups according to UACR. The drug was dissolved in 2% (v/v) DMSO + 2% (w/v) Tween 80 + physiological saline system and administered by gavage. […] Normal group: 5 rats, raised normally. Each group had free access to food and water.
After the start of drug administration, rats were placed in metabolic cages to collect 24 hours urine per week. […] Three weeks after administration, serum was collected to check the concentrations of blood creatinine and urea nitrogen. Then, the rats were euthanized under anesthesia, and the renal tissues were obtained. The RNA levels of nephrin and podocin were detected by quantitative RT-PCR.
GraphPad Prism (Ver 6.0) was used for statistical analysis. All data were expressed as mean ± standard error (mean ± SEM). One-way ANOVA was used to analyze the data. Dunnett's multiple test was used to analyze the significance of the differences between the groups. When P < 0.05, the differences between the groups were statistically significant.

[7] = E21 high dose (10 mg/kg morning and evening), Figure 4
[8] = E21 medium dose (5 mg/kg morning and evening), Figure 3

For `COC(c1ccc(F)cc1Cl)c1cnc2n1CCN(c1cn[nH]c(=O)c1Cl)C2` (racemic) [Example E21, 4-chloro-5-(3-((2-chloro-4-fluorophenyl)(methoxy)methyl)-5,6-dihydroimidazo[1,2-a]pyrazin-7(8H)-yl)pyridazin-3(2H)-one], the “drug exposure and distribution in plasma, liver, and kidney” value ([1]; 1 and 4 hours after oral administration to mice) was “good”, the “Drug concentration Brain” value ([1]; 1 h) was 52 ng/g and the “Drug concentration Colon” value ([1]; 1 h) was 824 ng/g. The “Drug concentration Heart” value ([1]; 1 h) was 191 ng/g, the “Drug concentration Kidney” value ([1]; 1 h) was 719 ng/g and the “Drug concentration Liver” value ([1]; 1 h) was 565 ng/g. For the same compound, the “Drug concentration Lung” value ([1]; 1 h) was 219 ng/g, the “Drug concentration Muscle” value ([1]; 1 h) was 153 ng/g and the “Drug concentration Plasma” value ([1]; 1 h) was 1147 ng/mL. For the same compound, the “Drug concentration Spleen” value ([1]; 1 h) was 531 ng/g, the “Drug concentration Brain” value ([1]; 4 h) was 28 ng/g and the “Drug concentration Colon” value ([1]; 4 h) was 133 ng/g. The “Drug concentration Heart” value ([1]; 4 h) was 26 ng/g, the “Drug concentration Kidney” value ([1]; 4 h) was 97 ng/g and the “Drug concentration Liver” value ([1]; 4 h) was 205 ng/g. For the same compound, the “Drug concentration Lung” value ([1]; 4 h) was 39 ng/g, the “Drug concentration Muscle” value ([1]; 4 h) was 52 ng/g and the “Drug concentration Plasma” value ([1]; 4 h) was 250 ng/mL. For the same compound, the “Drug concentration Spleen” value ([1]; 4 h) was 60 ng/g.
Work on `[N-]=[N+]=NC(c1ccc(F)cc1C(F)(F)F)c1cnc2n1CCN(c1cn[nH]c(=O)c1Cl)C2` (stereo not shown) [Example E9, 5-(3-(azido(4-fluoro-2-(trifluoromethyl)phenyl)methyl)-5,6-dihydroimidazo[1,2-a]pyrazin-7(8H)-yl)-4-chloropyridazin-3(2H)-one] yielded an IC50 (hTRPC5) of 24.6 nM.
In the case of `COC(c1cc(F)ccc1Cl)c1cnc2n1CCN(c1cn[nH]c(=O)c1Cl)C2` (stereo not shown) [Example E22, 4-chloro-5-(3-((2-chloro-5-fluorophenyl)(methoxy)methyl)-5,6-dihydroimidazo[1,2-a]pyrazin-7(8H)-yl)pyridazin-3(2H)-one], the IC50 (hTRPC5) is reported as 60.1 nM.
Compound `[2H]C([2H])([2H])OC(c1ccc(F)cc1C)c1cnc2n1CCN(c1cn[nH]c(=O)c1Cl)C2` (stereo not shown) [Example E24, 4-chloro-5-(3-((4-fluoro-2-methylphenyl)(methoxy-d3)methyl)-5,6-dihydroimidazo[1,2-a]pyrazin-7(8H)-yl)pyridazin-3(2H)-one] has an MF % [2] of 63.8%, a half-life at 1 µM [2] of 3.15 h and an MF % [3] of 55.9%. For the same compound, the half-life at 1 µM [3] was 0.997 h.
`C=C(c1cc(F)ccc1Cl)c1cnc2n1CCN(c1cn[nH]c(=O)c1Cl)C2` [Example E27, 4-chloro-5-(3-(1-(2-chloro-5-fluorophenyl)vinyl)-5,6-dihydroimidazo[1,2-a]pyrazin-7(8H)-yl)pyridazin-3(2H)-one] showed an IC50 (hTRPC5) of 5.28 nM.
Compound `CC(c1ccc(F)cc1Cl)c1cnc2n1CCN(c1cn[nH]c(=O)c1Cl)C2` (stereo not shown) [Example E28, 4-chloro-5-(3-(1-(2-chloro-4-fluorophenyl)ethyl)-5,6-dihydroimidazo[1,2-a]pyrazin-7(8H)-yl)pyridazin-3(2H)-one] has an IC50 (hTRPC5) of 18.3 nM.
Work on `CC(c1cc(F)ccc1Cl)c1cnc2n1CCN(c1cn[nH]c(=O)c1Cl)C2` (stereo not shown) [Example E29, 4-chloro-5-(3-(1-(2-chloro-5-fluorophenyl)ethyl)-5,6-dihydroimidazo[1,2-a]pyrazin-7(8H)-yl)pyridazin-3(2H)-one] yielded an MF % [2] of 39.6%, a half-life at 1 µM [2] of 1.17 h and an MF % [3] of 54.4%. For the same compound, the half-life at 1 µM [3] was 0.94 h.
Work on `[N-]=[N+]=NC(c1cc(F)ccc1Cl)c1cnc2n1CCN(c1cn[nH]c(=O)c1Cl)C2` (stereo not shown) [Example E30, 5-(3-(azido(2-chloro-5-fluorophenyl)methyl)-5,6-dihydroimidazo[1,2-a]pyrazin-7(8H)-yl)-4-chloropyridazin-3(2H)-one] yielded an IC50 (hTRPC5) of 37.1 nM.
`O=C(c1ccc(F)cc1C(F)(F)F)c1nnc2n1CCN(c1cn[nH]c(=O)c1Cl)C2` [Example E41, 4-chloro-5-(3-(4-fluoro-2-(trifluoromethyl)benzoyl)-5,6-dihydro-[1,2,4]triazolo[4,3-a]pyrazin-7(8H)-yl)pyridazin-3(2H)-one] gave an IC50 (hTRPC5) of 146 nM.
Compound `O=c1[nH]ncc(N2CCn3c(Cc4ccc(F)cc4C(F)(F)F)cnc3C2)c1Cl` [Example L002] has an IC50 (hTRPC5) of 10.4 nM, a half-life at 1 µM (in vitro [4]) of 1.1 h and a half-life at 1 µM (in vitro [5]) of 0.645 h.
In the case of `CCCCc1nc(Cl)c(CO)n1Cc1ccc(-c2ccccc2-c2nn[nH]n2)cc1` [losartan], the “levels of nephrin (mRNA, kidney)” value [6, 7] is reported as “effectively increase”, the “levels of podocin (mRNA, kidney)” value [6, 7] is reported as “effectively increase” and the “serum creatinine (Scr)” value [6, 8] is reported as “effectively reduce”. For the same compound, the “urea nitrogen (BUN)” value [6, 8] was “no effect”.
